Here are results for 19 molecules from US20140315876A1, “BETA-LACTAMASE INHIBITORS” (priority 2013, published 2014).

Assay [1] deals with bacterial strains that express the class D cephalosporinase OXA-15. The assay is described as follows: Synergy MIC / standard BLI potentiation MIC assay, strains expressing OXA-15. The format is cell-based, E. coli. To be noted: in the presence of a β-lactam; comparator Avibactam (comparator compound CCC). Put shortly: (§1)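 Broth microdilution in CAMHB per CLSI, ~10^5 CFU/mL, 18-20 h at 37° C; MIC is lowest concentration with no visible turbidity. Potentiation: β-lactam 128-0.13 μg/mL with BLI fixed at 4 μg/mL. Synergy: BLI serially diluted with β-lactam fixed. Engineered E. coli kept on 25 μg/mL tetracycline.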

Assay [2] relates to bacterial strains that express KPC β-lactamases. Nature of the assay: Synergy MIC / standard BLI potentiation MIC assay, strains expressing KPC β-lactamases. The format is cell-based. The conditions noted are these: more active for at least one KPC strain and/or better spectrum of activity than Avibactam; in the presence of a β-lactam. The method in brief:
as §1

Structures can show the parent of a compound that is named as a salt.

`NC(=O)c1nnc([C@@H]2CC[C@@H]3CN2C(=O)N3OS(=O)(=O)O)o1` [Compound 706, (2S,5R)-2-(5-carbamoyl-1,3,4-oxadiazol-2-yl)-7-oxo-1,6-diaza-bicyclo[3.2.1]octan-6-yl hydrogen sulfate]: in assay [1], the “activity against bacterial strains that express the class D cephalosporinase OXA-15, compared with Avibactam” value was “more active than Avibactam”. Moreover, the “activity and/or spectrum of activity against bacterial strains that express KPC β-lactamases, compared with Avibactam” value in assay [2] is on record as “more active than Avibactam”.

For `N=C(N)NCc1nnc([C@@H]2CC[C@@H]3CN2C(=O)N3OS(=O)(=O)O)s1` [Compound 721, (2S,5R)-2-(5-(guanidinomethyl)-1,3,4-thiadiazol-2-yl)-7-oxo-1,6-diazabicyclo[3.2.1]octan-6-yl hydrogen sulfate], in assay [1], the “activity against bacterial strains that express the class D cephalosporinase OXA-15, compared with Avibactam” value is on record as “more active than Avibactam”. The “activity and/or spectrum of activity against bacterial strains that express KPC β-lactamases, compared with Avibactam” value in assay [2] is “more active than Avibactam”.

For the molecule `O=C1N2C[C@@H](CC[C@H]2c2nnc(CCNCCO)o2)N1OS(=O)(=O)O` [Compound 736, (2S,5R)-2-(5-(2-((2-hydroxyethyl)amino)ethyl)-1,3,4-oxadiazol-2-yl)-7-oxo-1,6-diazabicyclo[3.2.1]octan-6-yl hydrogen sulfate], the “activity against bacterial strains that express the class D cephalosporinase OXA-15, compared with Avibactam” value in assay [1] is “more active than Avibactam”. In addition, in assay [2], the “activity and/or spectrum of activity against bacterial strains that express KPC β-lactamases, compared with Avibactam” value is “more active than Avibactam”.

In the case of `N=C(N)N[C@H]1C[C@@H](c2nnc([C@@H]3CC[C@@H]4CN3C(=O)N4OS(=O)(=O)O)s2)C1` [Compound 784, (2S,5R)-2-(5-((1s,3R)-3-guanidinocyclobutyl)-1,3,4-thiadiazol-2-yl)-7-oxo-1,6-diazabicyclo[3.2.1]octan-6-yl hydrogen sulfate], the “activity against bacterial strains that express the class D cephalosporinase OXA-15, compared with Avibactam” value in assay [1] is “more active than Avibactam”. Moreover, the “activity and/or spectrum of activity against bacterial strains that express KPC β-lactamases, compared with Avibactam” value in assay [2] is reported as “more active than Avibactam”.

Consider `N[C@H]1C[C@H](Cc2nnc([C@@H]3CC[C@@H]4CN3C(=O)N4OS(=O)(=O)O)o2)C1` [Compound 751, (2S,5R)-2-(5-(((1r,3S)-3-aminocyclobutyl)methyl)-1,3,4-oxadiazol-2-yl)-7-oxo-1,6-diazabicyclo[3.2.1]octan-6-yl hydrogen sulfate], for which the “activity against bacterial strains that express the class D cephalosporinase OXA-15, compared with Avibactam” value in assay [1] is “more active than Avibactam”. Further, in assay [2], the “activity and/or spectrum of activity against bacterial strains that express KPC β-lactamases, compared with Avibactam” value was “more active than Avibactam”.

As for `O=C1N2C[C@@H](CC[C@H]2c2nnc(CCC3CNC3)o2)N1OS(=O)(=O)O` [Compound 742, (2S,5R)-2-(5-(2-(azetidin-3-yl)ethyl)-1,3,4-oxadiazol-2-yl)-7-oxo-1,6-diazabicyclo[3.2.1]octan-6-yl hydrogen sulfate], in assay [1], the “activity against bacterial strains that express the class D cephalosporinase OXA-15, compared with Avibactam” value was “more active than Avibactam”. Moreover, in assay [2], the “activity and/or spectrum of activity against bacterial strains that express KPC β-lactamases, compared with Avibactam” value is listed as “more active than Avibactam”.

Regarding `NC1CC(NCc2nnc([C@@H]3CC[C@@H]4CN3C(=O)N4OS(=O)(=O)O)o2)C1` (stereo partly drawn) [Compound 755, (2S,5R)-2-(5-(((3-aminocyclobutyl)amino)methyl)-1,3,4-oxadiazol-2-yl)-7-oxo-1,6-diazabicyclo[3.2.1]octan-6-yl hydrogen sulfate], the “activity against bacterial strains that express the class D cephalosporinase OXA-15, compared with Avibactam” value in assay [1] is on record as “more active than Avibactam”. The “activity and/or spectrum of activity against bacterial strains that express KPC β-lactamases, compared with Avibactam” value in assay [2] is “more active than Avibactam”.

For the molecule `O=C1N2C[C@@H](CC[C@H]2c2nnc(CNC3CNC3)o2)N1OS(=O)(=O)O` [Compound 726, (2S,5R)-2-(5-((azetidin-3-ylamino)methyl)-1,3,4-oxadiazol-2-yl)-7-oxo-1,6-diazabicyclo[3.2.1]octan-6-yl hydrogen sulfate], the “activity against bacterial strains that express the class D cephalosporinase OXA-15, compared with Avibactam” value in assay [1] is “more active than Avibactam”. In addition, in assay [2], the “activity and/or spectrum of activity against bacterial strains that express KPC β-lactamases, compared with Avibactam” value was “more active than Avibactam”.

With `N[C@H]1C[C@@H](NCc2nnc([C@@H]3CC[C@@H]4CN3C(=O)N4OS(=O)(=O)O)o2)C1` [Compound 756, (2S,5R)-2-(5-((((1s,3R)-3-aminocyclobutyl)amino)methyl)-1,3,4-oxadiazol-2-yl)-7-oxo-1,6-diazabicyclo[3.2.1]octan-6-yl hydrogen sulfate], in assay [1], the “activity against bacterial strains that express the class D cephalosporinase OXA-15, compared with Avibactam” value is given as “more active than Avibactam”. Also, the “activity and/or spectrum of activity against bacterial strains that express KPC β-lactamases, compared with Avibactam” value in assay [2] is on record as “more active than Avibactam”.

For `O=C1N2C[C@@H](CC[C@H]2c2nnc([C@@H]3CCNC3)o2)N1OS(=O)(=O)O` [Compound 759, (2S,5R)-7-oxo-2-(5-((R)-pyrrolidin-3-yl)-1,3,4-oxadiazol-2-yl)-1,6-diazabicyclo[3.2.1]octan-6-yl hydrogen sulfate], in assay [1], the “activity against bacterial strains that express the class D cephalosporinase OXA-15, compared with Avibactam” value is listed as “more active than Avibactam”. Further, in assay [2], the “activity and/or spectrum of activity against bacterial strains that express KPC β-lactamases, compared with Avibactam” value is “more active than Avibactam”.

Turning to `N=C(N)NC[C@@H](O)c1nnc([C@@H]2CC[C@@H]3CN2C(=O)N3OS(=O)(=O)O)o1` [Compound 731, (2S,5R)-2-(5-((R)-2-guanidino-1-hydroxyethyl)-1,3,4-oxadiazol-2-yl)-7-oxo-1,6-diazabicyclo[3.2.1]octan-6-yl hydrogen sulfate], the “activity against bacterial strains that express the class D cephalosporinase OXA-15, compared with Avibactam” value in assay [1] was “more active than Avibactam”. Moreover, in assay [2], the “activity and/or spectrum of activity against bacterial strains that express KPC β-lactamases, compared with Avibactam” value was “more active than Avibactam”.

With `O=C1N2C[C@@H](CC[C@H]2c2nnc(COC3CNC3)o2)N1OS(=O)(=O)O` [Compound 744, (2S,5R)-2-(5-((azetidin-3-yloxy)methyl)-1,3,4-oxadiazol-2-yl)-7-oxo-1,6-diazabicyclo[3.2.1]octan-6-yl hydrogen sulfate], in assay [1], the “activity against bacterial strains that express the class D cephalosporinase OXA-15, compared with Avibactam” value is “more active than Avibactam”. Further, the “activity and/or spectrum of activity against bacterial strains that express KPC β-lactamases, compared with Avibactam” value in assay [2] is recorded as “more active than Avibactam”.

On to `N[C@@H]1CC[C@H](c2nnc([C@@H]3CC[C@@H]4CN3C(=O)N4OS(=O)(=O)O)o2)C1` [Compound 729, (2S,5R)-2-(5-((1S,3R)-3-aminocyclopentyl)-1,3,4-oxadiazol-2-yl)-7-oxo-1,6-diazabicyclo[3.2.1]octan-6-yl hydrogen sulfate], for which, in assay [1], the “activity against bacterial strains that express the class D cephalosporinase OXA-15, compared with Avibactam” value is “more active than Avibactam”. For the same molecule, in assay [2], the “activity and/or spectrum of activity against bacterial strains that express KPC β-lactamases, compared with Avibactam” value is “more active than Avibactam”.

As for `O=C1N2C[C@@H](CC[C@H]2c2nnc(CC3CCNC3)o2)N1OS(=O)(=O)O` (stereo partly drawn) [Compound 764, (2S,5R)-7-oxo-2-(5-(pyrrolidin-3-ylmethyl)-1,3,4-oxadiazol-2-yl)-1,6-diazabicyclo[3.2.1]octan-6-yl hydrogen sulfate], the “activity against bacterial strains that express the class D cephalosporinase OXA-15, compared with Avibactam” value in assay [1] is “more active than Avibactam”. Moreover, in assay [2], the “activity and/or spectrum of activity against bacterial strains that express KPC β-lactamases, compared with Avibactam” value is reported as “more active than Avibactam”.

`N[C@H]1CN[C@@H](c2nnc([C@@H]3CC[C@@H]4CN3C(=O)N4OS(=O)(=O)O)o2)C1` [Compound 761, (2S,5R)-2-(5-((2R,4R)-4-aminopyrrolidin-2-yl)-1,3,4-oxadiazol-2-yl)-7-oxo-1,6-diazabicyclo[3.2.1]octan-6-yl hydrogen sulfate]: the “activity against bacterial strains that express the class D cephalosporinase OXA-15, compared with Avibactam” value in assay [1] is given as “more active than Avibactam”. The “activity and/or spectrum of activity against bacterial strains that express KPC β-lactamases, compared with Avibactam” value in assay [2] is listed as “more active than Avibactam”.

In the case of `NCCCc1nnc([C@@H]2CC[C@@H]3CN2C(=O)N3OS(=O)(=O)O)o1` [Compound 720, (2S,5R)-2-(5-(3-aminopropyl)-1,3,4-oxadiazol-2-yl)-7-oxo-1,6-diazabicyclo[3.2.1]octan-6-yl hydrogen sulfate], the “activity against bacterial strains that express the class D cephalosporinase OXA-15, compared with Avibactam” value in assay [1] is recorded as “more active than Avibactam”. Further, in assay [2], the “activity and/or spectrum of activity against bacterial strains that express KPC β-lactamases, compared with Avibactam” value was “more active than Avibactam”.

Regarding `C[n+]1ccc(-c2nnc([C@@H]3CC[C@@H]4CN3C(=O)N4OS(=O)(=O)[O-])o2)cc1` [Compound 782, (2S,5R)-2-(5-(1-methylpyridin-1-ium-4-yl)-1,3,4-oxadiazol-2-yl)-7-oxo-1,6-diazabicyclo[3.2.1]octan-6-yl sulfate], the “activity against bacterial strains that express the class D cephalosporinase OXA-15, compared with Avibactam” value in assay [1] is reported as “more active than Avibactam”. Further, in assay [2], the “activity and/or spectrum of activity against bacterial strains that express KPC β-lactamases, compared with Avibactam” value is “more active than Avibactam”.

For the molecule `N=C(N)N1CC(c2nnc([C@@H]3CC[C@@H]4CN3C(=O)N4OS(=O)(=O)O)o2)C1` [Compound 709, (2S,5R)-2-(5-(1-carbamimidoylazetidin-3-yl)-1,3,4-oxadiazol-2-yl)-7-oxo-1,6-diazabicyclo[3.2.1]octan-6-yl hydrogen sulfate], the “activity against bacterial strains that express the class D cephalosporinase OXA-15, compared with Avibactam” value in assay [1] is “more active than Avibactam”. Further, in assay [2], the “activity and/or spectrum of activity against bacterial strains that express KPC β-lactamases, compared with Avibactam” value is “more active than Avibactam”.

For the molecule `O=C1N2C[C@@H](CC[C@H]2c2nnc(CCCC3CNC3)o2)N1OS(=O)(=O)O` [Compound 743, (2S,5R)-2-(5-(3-(azetidin-3-yl)propyl)-1,3,4-oxadiazol-2-yl)-7-oxo-1,6-diazabicyclo[3.2.1]octan-6-yl hydrogen sulfate], the “activity against bacterial strains that express the class D cephalosporinase OXA-15, compared with Avibactam” value in assay [1] is recorded as “more active than Avibactam”. For the same molecule, in assay [2], the “activity and/or spectrum of activity against bacterial strains that express KPC β-lactamases, compared with Avibactam” value is reported as “more active than Avibactam”.
